For experiment [1], the system named is MCF-7 cancer cells. Put plainly: Cell cycle analysis by flow cytometry. In kind it is cell-based, human. The note with it: 24 h; for G2 (G2/M) population: control 26.66%; for S population: control 33.42%; for G1 population: control 39.92%. How it is done: Based on the literature report, most tubulin destabilising agents can disrupt regulated cell cycle distribution and lead to cell cycle arrest at metaphase[23]^,[31]. Therefore, we evaluated the effect of the most promising compound 5b on the cell cycle of MCF-7 cancer cells using the flow cytometry analysis assay. In this study, MCF-7 cancer cells were incubated with different concentrations of 5b (0.3125, 0.625, and 1.25 μM) for 24 h. […]
MCF-7 cells were seeded in 6-well plates (3 × 10^5 cells/well) and incubated in the absence and presence of different concentrations of compound 5b (0.3125, 0.625, and 1.25 μM) for 24 h. Subsequently, the cells were harvested, washed with PBS, and fixed in 70% ice-cold ethanol at 4 °C overnight. After removed the ethanol in the next day, the cells were resuspended in the staining buffer and incubated with RNase and propidium iodide for 30 min. […]
For orientation: In flow cytometry, cells or beads pass a laser one at a time.

Experiment [2] relates to human breast cancer cell line (MCF-7). In words: Antiproliferative activity, CCK-8 assay, MCF-7. In kind it is cell-based. The note with it: CCK-8, 48 h, means of three experiments. The method, then: Cell culture and cytotoxicity assay […]
against MCF-7 human breast cancer cell line by using the CCK -8 assay with cisplatin, […]
cultured in RPMI-1640 medium containing 10% fetal bovine serum in a humidified 5% CO2 atmosphere at 37 °C. Cells were seeded into 96-well plates at a density of 1×10^5 cells/well and incubated for 24 h. After incubation, the cells were treated with vehicle control, reference drugs, or title compounds, and incubated at 37 °C for 48 h.
Then CCK-8 was added and incubated for another 4 h. The absorbance values of the solution at 450 nm were measured using microplate reader, and each experiment was performed at least in triplicate. Then the results were expressed as the IC50 values. […]
On the technique in general: Formazan colour is commonly taken as a measure of viable cells.

In experiment [3] the test system is normal human embryonic kidney cell line (HEK293). In words: Inhibitory activity against normal cell line HEK293. The class given is cell-based.
Another experiment concerns purified tubulin protein. Put plainly: In vitro tubulin polymerisation assay. The class given is biochemical. The note with it: 37 °C, 20 min incubation. How it is done:
1.3. In vitro tubulin polymerization assay
The purified tubulin protein was mixed with different concentrations of compound 5b […]
PEM buffer (100 mM PIPES, 1 mM MgCl2, and 1 mM EGTA) with 1 mM GTP and 5% glycerol. Then the mixture was immediately monitored under 340 nm at 37 °C every 1 min for 20 min using the spectrophotometer. The plateau absorbance values were used for calculations. The IC50 value was defined as the concentration of the compound

Experiment [4] relates to human lung adenocarcinoma cell line (A549). In words: Antiproliferative activity, CCK-8 assay, A549. The class given is cell-based. The note with it: CCK-8, means of three experiments.
Experiment [5] deals with MCF-7 cancer cells. In words: Annexin V-FITC/PI apoptosis assay. The class given is cell-based, human. The note with it: 24 h; for total numbers of early and late apoptotic cells: control 4.93%. How it is done: Considering that tubulin polymerisation inhibitors can induce cellular apoptosis, the Annexin V-FITC/PI assay was performed to detect whether compound 5b was able to induce cancer cell apoptosis. […]
MCF-7 cells were seeded in 6-well plates (3 × 10^5 cells/well) and incubated with different concentrations of compound 5b (0.3125, 0.625, and 1.25 μM) or vehicle for 24 h. Cells were harvested and incubated with 5 μL of Annexin-V/FITC in 300 μL binding buffer for 15 min. Then, PI solution (10 μL) was added to the medium and […]
incubated for 5 min. […]

A further experiment relates to tubulin. Details: method as in PMID 31724435. The note with it: naphthalene-chalcone derivative of earlier work ref 23; read-out: Tubulin polymerisation IC50; cited from earlier work.

SMILES strings stand for the structures. A value given as a limit tells only on which side of the number the result lay.

Usually IC50 stands for the point on the concentration scale where inhibition reaches its midpoint.

For `CCOc1ccc(-c2sc(N)nc2-c2ccc(OC)c3ccccc23)cc1` [5b], the entries for the “G2 (G2/M) population” value with MCF-7 cancer cells [1] (5b 0.3125 μM), in the experiment on MCF-7 cancer cells [1] (5b 0.625 μM) and in the experiment on MCF-7 cancer cells [1] (5b 1.25 μM) were 29.03%, 47.32% and 72.49%, respectively. In addition, the S population is given as 28.11% with MCF-7 cancer cells [1] (5b 0.3125 μM), 36.61% with MCF-7 cancer cells [1] (5b 0.625 μM) and 20.22% in the experiment on MCF-7 cancer cells [1] (5b 1.25 μM). Moreover, the G1 population in the experiment with MCF-7 cancer cells [1] (5b 0.3125 μM) turned out to be 42.86%; with MCF-7 cancer cells [1] (5b 0.625 μM), 16.06%; in the experiment on MCF-7 cancer cells [1] (5b 1.25 μM), 7.29%. In addition, the IC50 in experiment [2] (Homo sapiens, MCF7) stood at 0.48 ± 0.03 µM; in experiment [3] it was 16.4 ± 4.61 µM; in the experiment with purified tubulin protein, 3.3 µM; in experiment [4] (Homo sapiens, A549), 0.97 ± 0.13 µM. Moreover, the Q1 quadrant in the experiment with MCF-7 cancer cells [5] (5b 0.3125 μM) is 0.25; with MCF-7 cancer cells [5] (5b 0.625 μM), 0.44; in the experiment on MCF-7 cancer cells [5] (5b 1.25 μM), 0.55. The Q2 quadrant in the experiment with MCF-7 cancer cells [5] (5b 0.3125 μM) amounted to 10.2; with MCF-7 cancer cells [5] (5b 0.625 μM) it was 14.8; in the experiment on MCF-7 cancer cells [5] (5b 1.25 μM), 15.1. In addition, the Q3 quadrant with MCF-7 cancer cells [5] (5b 0.3125 μM) was 5.58; in the experiment on MCF-7 cancer cells [5] (5b 0.625 μM), 10.8; with MCF-7 cancer cells [5] (5b 1.25 μM), 12.6. For the same compound, the Q4 quadrant in the experiment with MCF-7 cancer cells [5] (5b 0.3125 μM) was determined as 83.9; in the experiment with MCF-7 cancer cells [5] (5b 0.625 μM) it was 74.0; in the experiment on MCF-7 cancer cells [5] (5b 1.25 μM) it was 71.8. Moreover, the “total numbers of early and late apoptotic cells” value is listed as 15.78% with MCF-7 cancer cells [5] (5b 0.3125 μM), 25.6% with MCF-7 cancer cells [5] (5b 0.625 μM) and 27.7% in the experiment with MCF-7 cancer cells [5] (5b 1.25 μM).

As for `COc1ccc(/C=C\c2cc(OC)c(OC)c(OC)c2)cc1O` [CA-4, combretastatin A-4, reference compound], 0.029 ± 0.004 µM corresponded to half-maximal inhibition in experiment [4] (Homo sapiens, A549) (IC50).

For `COc1ccc(-c2sc(N)nc2-c2ccc(OC)c3ccccc23)cc1` [5a], the IC50 came to 1.8 ± 0.07 µM in experiment [2] (Homo sapiens, MCF7) and 2.72 ± 0.18 µM in experiment [4] (Homo sapiens, A549).

On to `N.N.[Cl][Pt][Cl]` [Cisplatin, reference compound], for which the IC50 in experiment [2] was determined as 11.2 ± 0.75 µM; in experiment [4], 4.92 ± 0.56 µM.

As to `CCC(=O)N(C(C)=O)c1nc(-c2ccc(OC)c3ccccc23)c(-c2cc(OC)c(OC)c(OC)c2Br)s1` [6n, N-acetyl-N-(5-(2-bromo-3,4,5-trimethoxyphenyl)-4-(4-methoxynaphthalen-1-yl)thiazol-2-yl)propionamide], the IC50 in experiment [2] (Homo sapiens, MCF7) is 13.5 ± 0.82 µM; in experiment [4] (Homo sapiens, A549) it was 16.3 ± 0.89 µM.

In the case of `CCOc1ccc(-c2sc(NC(=O)C(C)C)nc2-c2ccc(OC)c3ccccc23)cc1` [6i], the IC50 in experiment [2] (Homo sapiens, MCF7) is 7.69 ± 0.34 µM; in experiment [4] (Homo sapiens, A549) it was over 50 µM.

With `CCCC(=O)N(C(=O)CCC)c1nc(-c2ccc(OC)c3ccccc23)c(-c2cc(OC)c(OC)c(OC)c2Br)s1` [6m], the IC50 is over 50 µM in experiment [2] (Homo sapiens, MCF7) and over 50 µM in experiment [4] (Homo sapiens, A549).

For the compound `CCOc1ccc(-c2sc(NC(C)=O)nc2-c2ccc(OC)c3ccccc23)cc1` [6f], the IC50 is 5.49 ± 0.84 µM in experiment [2] (Homo sapiens, MCF7) and 7 ± 0.3 µM in experiment [4] (Homo sapiens, A549).

As to `CCC(=O)Nc1nc(-c2ccc(OC)c3ccccc23)c(-c2ccc(OC)cc2)s1` [6b], the IC50 in experiment [2] (Homo sapiens, MCF7) was determined as 14.8 ± 0.45 µM; in experiment [4] (Homo sapiens, A549) it was 40.32 ± 0.32 µM.

For the compound `CCCC(=O)Nc1nc(-c2ccc(OC)c3ccccc23)c(-c2ccc(OC)cc2)s1` [6c], the IC50 in experiment [2] (Homo sapiens, MCF7) is 14.9 ± 0.34 µM; in experiment [4] (Homo sapiens, A549) it was over 50 µM.

On to `COc1ccc(-c2sc(NC(=O)C(C)C)nc2-c2ccc(OC)c3ccccc23)cc1` [6e], for which the IC50 is 12.3 ± 0.54 µM in experiment [2] (Homo sapiens, MCF7) and over 50 µM in experiment [4] (Homo sapiens, A549).

`COc1cc(-c2sc(N)nc2-c2ccc(OC)c3ccccc23)c(Br)c(OC)c1OC` [5c]: the IC50 in experiment [2] (Homo sapiens, MCF7) was 31.1 ± 0.7 µM; in experiment [4] (Homo sapiens, A549) it was over 50 µM.

`COc1ccc(-c2sc(NC(=O)C(Cl)(Cl)Cl)nc2-c2ccc(OC)c3ccccc23)cc1` [6d]: the IC50 is 1.03 ± 0.09 µM in experiment [2] (Homo sapiens, MCF7); 6.6 µM in the experiment with purified tubulin protein; 1.91 ± 0.08 µM in experiment [4] (Homo sapiens, A549).

Consider `COc1ccc(-c2sc(NC(C)=O)nc2-c2ccc(OC)c3ccccc23)cc1` [6a], for which the IC50 stood at 2.16 ± 0.27 µM in experiment [2] (Homo sapiens, MCF7) and 16.1 ± 0.83 µM in experiment [4] (Homo sapiens, A549).

With `CCCC(=O)Nc1nc(-c2ccc(OC)c3ccccc23)c(-c2ccc(OCC)cc2)s1` [6h], the IC50 is 7.18 ± 0.78 µM in experiment [2] (Homo sapiens, MCF7) and over 50 µM in experiment [4] (Homo sapiens, A549).

Consider `COc1cc2nc(/C=N/c3cccnc3Nc3ccc(Cl)cc3)sc2c(OC)c1OC` [IV], for which the IC50 in the experiment on tubulin was 8.4 µM.

On to `CCC(=O)Nc1nc(-c2ccc(OC)c3ccccc23)c(-c2cc(OC)c(OC)c(OC)c2Br)s1` [6j], for which the IC50 is over 50 µM in experiment [2] (Homo sapiens, MCF7) and over 50 µM in experiment [4] (Homo sapiens, A549).

As for `COc1cc(-c2sc(NC(=O)C(C)C)nc2-c2ccc(OC)c3ccccc23)c(Br)c(OC)c1OC` [6k], the IC50 was over 50 µM in experiment [2] (Homo sapiens, MCF7) and over 50 µM in experiment [4] (Homo sapiens, A549).

As to `CCOc1ccc(-c2sc(NC(=O)CC)nc2-c2ccc(OC)c3ccccc23)cc1` [6g], the IC50 is 9.61 ± 0.54 µM in experiment [2] (Homo sapiens, MCF7) and 18.7 ± 0.89 µM in experiment [4] (Homo sapiens, A549).
